From patent publication US20130324564A1, “POLYMORPHS OF (S)-1-(4,4,6,6,6-PENTADEUTERO-5-HYDROXYHEXYL)-3-7-DIMETHYL-1H-PURINE-2,6(3H,7H)-DIONE” (CONCERT PHARMACEUTICALS, INC., priority 2010, published 2013) come the findings set out here.

The nature of series [1]: Relative thermodynamic stability and interconversion of polymorphs. The series is classed as physicochemical.
Series [2] can be described thus: Solid-form stability of Form 1 under humidity, pressure and grinding stress. The series is classed as physicochemical.

Regarding `[2H]C([2H])([2H])[C@H](O)C([2H])([2H])CCCn1c(=O)c2c(ncn2C)n(C)c1=O` [Form 2, (S)-1-(4,4,6,6,6-pentadeutero-5-hydroxyhexyl)-3,7-dimethyl-1H-purine-2,6(3H,7H)-dione], the form conversion result in series [1] (upon air drying, storage and/or slurrying at room temperature) is listed as “convert to Form 1”.
For `[2H]C([2H])([2H])[C@H](O)C([2H])([2H])CCCn1c(=O)c2c(ncn2C)n(C)c1=O` [Form 1, (S)-1-(4,4,6,6,6-pentadeutero-5-hydroxyhexyl)-3,7-dimethyl-1H-purine-2,6(3H,7H)-dione], the “form stability / form change” value in series [2] (exposed to 0.35 GPa pressure) is “stable and did not undergo a form change”; in series [2] (exposed to 97% relative humidity for up to 12 days), “stable and did not undergo a form change”; in series [2] (ground at ambient temperature (30Hz for 2hrs)) it was “stable and did not undergo a form change”; in series [2] (ground at −196° C. (25Hz for 0.5hrs)), “stable and did not undergo a form change”. Moreover, the relative thermodynamic stability entry in series [1] (compared with the other polymorphs) is “more thermodynamically stable than any of Forms 2, 3 and 4”.
